Laboratory results published in patent publication US12570709B2, “Self-assembling peptide amphiphiles displaying a transforming growth factor beta 1 (TGF-ß1) mimetic epitope” (Northwestern University, priority 2021, dated 2026).
Bridge positions count the residues as written; N and C are the ends. Ends that are not written are not given here. I, II: the chains in the order shown. * marks the point of attachment. Palmitoyl = CCCCCCCCCCCCCCCC(=O)*

Assays:
[1] = test system: collagen II, aggrecan and F-actin in human chondrocytes; assay: Immunocytochemistry staining and fluorescence intensity analysis after three days; type: cell-based; conditions: three days in vitro
Description: For immunocytochemistry (ICC), 12-mm glass coverslips were coated with sterile filtered 0.01 mg/mL poly-D-lysine (Sigma-Aldrich) solution and incubated overnight at 37° C. The coverslips were washed three times with sterile water and air-dried for at least 30 minutes. Cells were seeded on coverslips at a density of approximately 3,000 cells/coverslip and cultured for 24 h. Cells were then treated with PA in solution for 3 days in vitro. Following treatment, cells were fixed in 4% paraformaldehyde for 15 minutes at room temperature.
(§1) Fixed samples were permeabilized and blocked in a solution of 0.1% (v/v) Triton X-100 and 1% normal horse serum (Invitrogen) for 2 hours at room temperature. Samples were incubated with primary antibodies overnight at 4° C. The following primary antibodies were used: rabbit anti-Sox9 (1:500, Abcam), mouse anti-Aggrecan (1:500, ThermoFisher), mouse anti-Collagen II (1:500, ThermoFisher), and mouse anti-Nuclei (1:500, Sigma-Aldrich). The next day, samples were incubated with AlexaFluor 488 secondary antibody, AlexaFluor 555 secondary antibody, Phalloidin AlexaFluor 488, and/or Phalloidin AlexaFluor 633 (1:1000, Invitrogen) for 2-3 h at room temperature. For 2D cell culture, samples were then incubated with DAPI (1:1000, Invitrogen) for 10 minutes at room temperature. If not already on a glass coverslip, samples were mounted with Immu-Mount (Thermo Scientific) and imaged on a Nikon A1R Spectral microscope. Image analysis was performed using ImageJ software.

[2] = cited from earlier work
[3] = test system: Smad2 phosphorylation (intracellular TGF-β1 signaling) in human chondrocytes; assay: Western blot of phosphorylated Smad2 after 4 h treatment; type: cell-based; conditions: for activation of p-Smad2 with addition of pan-TGF-β-neutralizing antibody 1D11: with vs without 1D11
Description: (§2) For western blot of 4 h PA treatments, cells were seeded in 6-well plates at a density of 600,000 cells/well and cultured for 24 h. […] Cells were then treated with PA in solution for 4 h in vitro. For western blot of 3-day PA treatments, cells were seeded in 6-well plates at a density of 230,000 cells/well and cultured for 24 h. Cells were then treated with PA in solution for 3 days in vitro.
(§3) Protein was extracted from cells using Halt Protease and Phosphatase Inhibitor Cocktail (Thermo Scientific) and a BCA assay (Thermo Scientific) was performed to determine protein content of each sample. Cell protein was loaded into and separated using a 4-20% SDS-PAGE gel (Bio-Rad). It was then electrotransferred from the gel to a nitrocellulose membrane (Bio-Rad). The membranes were blocked with 10% milk solution (Bio-Rad) for 30 minutes followed by an overnight incubation with primary antibodies at 4° C. The following primary antibodies were used: rabbit anti-pSmad2 (1:1000, Cell Signaling), rabbit anti-Smad2 (1:1000, Cell Signaling), rabbit anti-Sox9 (1:500, Abcam), mouse anti-Aggrecan (1:500, ThermoFisher), rabbit anti-COMP/Cartilage oligomeric matrix protein (1:500, Abcam), mouse anti-Collagen II (1:500, ThermoFisher), and mouse anti-Actin (1:1000, Novus Bio). Membranes were then incubated with their corresponding secondary HRP-conjugated antibodies (1:1000, ThermoFisher). Protein signals were detected using Radiance Bioluminescent ECL substrate (Azure Biosystems). Densitometry analysis, standardized to total receptor content or actin as a control for protein loading, was performed using ImageJ software. For quantification, experimental triplicate samples were analyzed, and two different experiments were conducted.

[4] = Transverse-relaxation (T2) NMR spectroscopy of PA assemblies; type: physicochemical; conditions: backbone PA assemblies
Description: NMR spectra were acquired at 600 MHz on a Brucker Neo system with QCI-F cryoprobe. NMR spectra for PAs were recorded at 25° C. using TFA-d, H2O/D2O in 9/1 ratio (D2O contains 0.05 wt. % 3-(trimethylsilyl) propionic-2,2,3,3-d4 acid, sodium salt) as solvents. Chemical shifts are reported in part per million (ppm). The […] was 15 μs and typical spectra required 32 scans.
The spin-spin relaxation rates were measured using the Carr-Purcell-Gill-Meiboom pulse sequence with a delay time of 0.2 ms in a variable loop. The peak intensity data was fit to and exponential in the form:
[formula] where τ is the length of the delay time, R2 is the spin-spin relaxation rate and b are the baseline.^2 Cell Culture

[5] = test system: collagen II, COMP, aggrecan and Sox9 in human chondrocytes; assay: Western blot of ECM proteins after three days treatment; type: cell-based; conditions: 10 μM, three days in vitro
Description: as §2, §3

[6] = Dynamic light scattering of TGF-β1 mimetic peptide; type: physicochemical; conditions: peptide alone, 100 mol %, 1 wt %, 25° C.
Description: DLS measurements were performed on a Malvern Zetasizer Nano ZSP light scattering spectrometer. The TGF-β1 mimetic peptide alone, without PA, was prepared at 1 wt % as previously described. During the sample measurement, the temperature was kept at 25° C. The sample was equilibrated for 30 seconds before each measurement was taken. The duration of each measurement was 10 seconds, and the measurement angle was 173° backscatter. The attenuator was determined by the instrument automatically, as was the number of accumulations for each run. Each measurement run was repeated 3 times.

[7] = test system: human chondrocytes encapsulated in PA hydrogels; assay: F-actin ICC and confocal microscopy of chondrocytes encapsulated in PA gels; type: cell-based; conditions: three days in vitro, equal concentrations of cells encapsulated
Description: as §1
Chondrocytes were trypsinized and resuspended in growth media for counting, and then pelleted and resuspended to 6×10^7 cells/mL in growth media. The cell solution was mixed 1:2 v/v with sterile PA solution prepared at 3 wt % in 30 mM NaCl. For gels also encapsulating rhTGF-β1 protein (R&D Systems), soluble protein was added to PA solutions after thermal annealing. 120 μL of PA/cell solution was mixed thoroughly by pipetting gently and then placed into PDL-coated 12-well chamber slides (Ibidi). Sterile gelling solution, comprised of 110 mM NaCl, 3 mM KCl, and 25 mM CaCl2, was pipetted dropwise on top of the PA/cell solution and the gels were incubated for 30 minutes at 37° C. Following incubation, excess gelling solution was removed and 250 μL of growth media was added to each well. The media was removed after 3 days for LDH viability assays as described above. For ICC, after 3 days of in vitro culture, gels were fixed in 4% paraformaldehyde for 30 minutes at room temperature.

[8] = Rheology of PA hydrogels (strain sweep, G′/G″ crossover); type: physicochemical; conditions: PA gels, 10 mol % co-assemblies
Description: Gels were made using 2 wt % PA solutions prepared as previously described, using 10 mol % co-assemblies of epitope PA with diluent PA. 12-well chamber slides (Ibidi) were coated with 0.01 mg/mL poly-D-lysine (Sigma-Aldrich) solution and incubated overnight at 37° C. The wells were washed three times with water and air-dried for at least 30 minutes. 120 μL of PA solution was pipetted evenly into the well and gelling solution comprised of 110 mM NaCl, 3 mM KCl, and 25 mM CaCl2 was pipetted dropwise on top of the PA solution. The gels were incubated at 37° C. for 30 minutes, and then excess gelling solution was removed.
Measurements were performed on an Anton Paar MCR302 rheometer with a 25 mm parallel-plate fixture. 120 μL of the PA/HA hybrid slurry was placed on the bottom plate and 30 μL of a 50 mM CaCl2/75 mM NaCl gelling solution was placed on the upper fixture. The fixture was lowered to a gap of 0.5 mm for 10 min during which time a 0.1% oscillatory strain was applied with a 10 rad/s angular frequency. The gap height was allowed to vary to keep the normal force at 0 N. Next, a strain sweep was performed at 10 rad/s from 0.1% to 100% strain to measure the strain to break the gel.

## rhTGF-β1: native recombinant human TGF-β1 (R&D Systems), positive control
[1]; 10 μM, ICC
  aggrecan synthesis: significantly increased aggrecan synthesis at similar levels
[1]
  chondrocyte phenotype (F-actin staining): maintained healthy chondrocyte phenotypes and prevented hypertrophy
[2]
  half-life in its active form in vivo: 2 to 3 min
[3]
  activation of p-Smad2 with addition of pan-TGF-β-neutralizing antibody 1D11: effectively neutralized

## C16-AEAE (Palmitoyl-AEAE-OH; SMILES CCCCCCCCCCCCCCCC(=O)N[C@@H](C)C(=O)N[C@@H](CCC(=O)O)C(=O)N[C@@H](C)C(=O)N[C@@H](CCC(=O)O)C(=O)O) [Backbone PA-b]
[4]
  1H spin-spin (T2) relaxation rate of terminal alkyl methyl protons: 20.49 ± 0.58 s⁻¹

## CESPLKRQC (disulfide 1-9 (inferred)) [TGF-β1 mimetic peptide, reference compound]
[1]; 10 μM, ICC
  upregulation of collagen II and aggrecan: little upregulation of either protein
[5]
  ECM synthesis (collagen II, COMP, aggrecan, Sox9): low activation
[6]
  hydrodynamic diameter of micelles: approximately 2 nm
  size of aggregates of micelles: ~200 nm
[3]; 50 μM, 4 h, 10 mol % co-assemblies
  p-Smad2 activation: no activation

## TGF PA-b: backbone PA SEQ ID NO: 8 conjugated to cyclic TGF-β1 mimetic peptide (SEQ ID NO: 1) by a linker; co-assembled with diluent Backbone PA-b (chain Palmitoyl-AEAEK-OH; peptide CESPLKRQC; disulfide II:1-II:9; not fully specified (some residues); also: co-assembled with diluent backbone PA-b)
[3]
  activation of p-Smad2 with addition of pan-TGF-β-neutralizing antibody 1D11: effectively neutralized

## C16-AAEE (Palmitoyl-AAEE-OH; SMILES CCCCCCCCCCCCCCCC(=O)N[C@@H](C)C(=O)N[C@@H](C)C(=O)N[C@@H](CCC(=O)O)C(=O)N[C@@H](CCC(=O)O)C(=O)O) [Backbone PA-a]
[4]
  1H spin-spin (T2) relaxation rate of terminal alkyl methyl protons: 3.67 ± 0.23 s⁻¹
[7]
  cells within the bulk of the gel: Far fewer cells were visible
[8]
  G′/G″ crossover % strain: 7.10 ± 1.49%
  G′/G″ crossover storage modulus: 0.55 ± 0.13 kPa
